Patent US9598424B2 (Takeda Pharmaceutical Company Limited, priority 2014, dated 2017)
Blank lines part the entries; values can stand above or below the compound they belong to.

Tests used:
TBK1 = target: T1, TBK1 (Homo sapiens, UniProt Q9UHD2); assay: Inhibition of TBK1 in Cells (TLR3 driven ISRE β-lactamase reporter assay); format: cell-based; conditions: poly IC-LMW stimulation 16 hrs, -log(EC50), EC50 molar; for EC50: read-out: Inhibition of TBK1 in cells pEC50 (EC) (converted)
T1 construct: host or cells: RA1-ISRE beta-lactamase reporter cells
T1 sequence (Q9UHD2 1-729): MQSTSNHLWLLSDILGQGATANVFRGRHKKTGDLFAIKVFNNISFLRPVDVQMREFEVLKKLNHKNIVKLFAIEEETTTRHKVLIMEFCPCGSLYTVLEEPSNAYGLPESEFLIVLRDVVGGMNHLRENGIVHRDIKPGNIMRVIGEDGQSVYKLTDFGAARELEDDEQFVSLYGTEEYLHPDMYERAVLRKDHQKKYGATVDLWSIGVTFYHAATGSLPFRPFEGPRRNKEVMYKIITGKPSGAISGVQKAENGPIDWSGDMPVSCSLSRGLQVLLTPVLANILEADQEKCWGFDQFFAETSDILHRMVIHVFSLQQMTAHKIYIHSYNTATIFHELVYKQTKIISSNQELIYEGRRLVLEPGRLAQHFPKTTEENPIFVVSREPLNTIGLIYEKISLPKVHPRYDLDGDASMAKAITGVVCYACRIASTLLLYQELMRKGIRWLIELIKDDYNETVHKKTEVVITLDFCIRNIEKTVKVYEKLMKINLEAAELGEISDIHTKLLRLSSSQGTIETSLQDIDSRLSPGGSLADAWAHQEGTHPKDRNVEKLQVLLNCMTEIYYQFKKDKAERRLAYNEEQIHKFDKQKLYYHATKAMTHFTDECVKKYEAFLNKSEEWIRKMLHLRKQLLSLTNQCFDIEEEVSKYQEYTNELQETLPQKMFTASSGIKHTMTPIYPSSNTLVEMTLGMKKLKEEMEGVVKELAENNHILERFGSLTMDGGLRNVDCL
Procedure, shortened: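 RA1-ISRE β-lactamase reporter cells (50,000/well) treated with 11-point 2.5-fold compound dilutions and stimulated with 0.15 mg/ml poly IC-LMW for 16 hrs. Reporter read by CCF4-AM FRET; EC50 from non-linear fit of percent inhibition, reported as pEC50 (molar).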

Full length human TBK1 = target: T2, Full length human TBK1 (Homo sapiens, UniProt Q9UHD2); assay: Inhibition of TBK1 Enzyme (Caliper microfluidic assay); format: biochemical; conditions: 25 μM ATP, 60 min at RT, -log(IC50), IC50 molar; for IC50: read-out: TBK1 Inhibition (pIC50) (converted)
T2 construct: Full length human TBK1 with an N-terminal His-tag; His-tag (N); made in house; host or cells: Sf9 insect cells (baculovirus, pFastBac1)
T2 sequence (Q9UHD2 1-729): T1 sequence (Q9UHD2 1-729)
Procedure, shortened: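 Enzyme: His-tagged full-length TBK1 expressed in Sf9. Reaction 60 min at RT in 20 mM Hepes pH 7.4, 10 mM MgCl2, 1 mM EDTA, 0.01% Brij-L23, 1 mM DTT, with 5FAM-peptide (added at 1 μM) and TBK1/ATP mix (added at 3 nM/25 μM), then EDTA-quenched. Conversion measured by microfluidic separation; 11-point 2.5-fold series fit to pIC50.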

C57/BL6 mice = assay: Inhibition of ConA Induced Hepatitis (plasma ALT); format: in vivo; conditions: Mus musculus; oral, 1 hr before ConA 15 mg/kg i.v.; plasma collected post 8-24 hrs; read-out: ED50 (amount reducing ConA induced increase in plasma ALT level by 50%)
Experimental: Orally administer compound into normal C57/BL6 mice at several doses. After 1 hr, inject i.v. with ConA 15 mg/kg, (N=5). Post 8-24 hrs, collect plasma and liver. Measure plasma ALT enzyme level. An ED50 is determined as the amount of test compound that reduces ConA induced increase in plasma ALT level by 50%.

Compound: Cn1nc(-c2ccc3nc(NC(=O)C4CC4)cn3c2)cc1C(=O)NCC(F)(F)F [Example 1, 3-(2-(cyclopropanecarboxamido)imidazo[1,2-a]pyridin-6-yl)-1-methyl-N-(2,2,2-trifluoroethyl)-1H-pyrazole-5-carboxamide]
melting point: 251 to 255 °C
EC50 (TBK1): 8320 nM
IC50 (Full length human TBK1): 251 nM

Compound: Cn1nc(-c2ccc3nc(NC(=O)C4CC4)cn3c2)cc1C(=O)NCC(F)F [Example 2, 3-(2-(cyclopropanecarboxamido)imidazo[1,2-a]pyridin-6-yl)-N-(2,2-difluoroethyl)-1-methyl-1H-pyrazole-5-carboxamide]
melting point: 284 to 290 °C
EC50 (TBK1): 8320 nM
IC50 (Full length human TBK1): 316 nM

Compound: CC(=O)Nc1cn2cc(-c3csc(C(=O)NCC(F)(F)F)c3)ccc2n1 [Example 13, 4-(2-acetamidoimidazo[1,2-a]pyridin-6-yl)-N-(2,2,2-trifluoroethyl)thiophene-2-carboxamide]
melting point: 180 to 182 °C
EC50 (TBK1): 813 nM
IC50 (Full length human TBK1): 25.1 nM

Compound: COCCC(=O)Nc1cn2cc(-c3csc(C(=O)NCC(F)(F)F)c3)ccc2n1 [Example 15, 4-(2-(3-methoxypropanamido)imidazo[1,2-a]pyridin-6-yl)-N-(2,2,2-trifluoroethyl)thiophene-2-carboxamide]
melting point: 231 to 233 °C
EC50 (TBK1): 933 nM
IC50 (Full length human TBK1): 25.1 nM

Compound: O=C(NCC(F)F)c1nc(-c2ccc3nc(NC(=O)C4CC4)cn3c2)cs1 [Example 86, 4-(2-(cyclopropanecarboxamido)imidazo[1,2-a]pyridin-6-yl)-N-(2,2-difluoroethyl)thiazole-2-carboxamide]
ED50 (C57/BL6 mice): 5 mg/kg
EC50 (TBK1): 537 nM
IC50 (Full length human TBK1): 15.8 nM

Compound: O=C(Nc1cn2cc(-c3csc(C(=O)N4CC(CO)C4)n3)ccc2n1)C1CC1 [Example 124, N-(6-(2-(3-(hydroxymethyl)azetidine-1-carbonyl)thiazol-4-yl)imidazo[1,2-a]pyridin-2-yl)cyclopropanecarboxamide]
EC50 (TBK1): 2140 nM
IC50 (Full length human TBK1): 251 nM

Compound: N[C@@H]1CCCC(F)(F)[C@@H]1NC(=O)c1cc(-c2ccc3nc(NC(=O)C4CC4)cn3c2)cs1 [Example 125, N-((1R,6R)-6-amino-2,2-difluorocyclohexyl)-4-(2-(cyclopropanecarboxamido)imidazo[1,2-a]pyridin-6-yl)thiophene-2-carboxamide]
EC50 (TBK1): 19.1 nM
IC50 (Full length human TBK1): 6.31 nM

Compound: O=C(Nc1cn2cc(-n3ccc(C(=O)N(CCO)CC(F)(F)F)n3)ncc2n1)C1CC1 [Example 127, 1-(2-(cyclopropanecarboxamido)imidazo[1,2-a]pyrazin-6-yl)-N-(2-hydroxyethyl)-N-(2,2,2-trifluoroethyl)-1H-pyrazole-3-carboxamide]
EC50 (TBK1): 209 nM
IC50 (Full length human TBK1): 5.01 nM

Compound: (R)-4-(2-(cyclopropanecarboxamido)imidazo[1,2-a]pyrazin-6-yl)-N-(1,1,1-trifluoropropan-2-yl)thiazole-2-carboxamide [Example 7]
Inhibition of TBK1 in cells pEC50 (EC) (TBK1): 6.41
TBK1 Inhibition (pIC50) (Full length human TBK1): 8.1

The remaining lines, values ahead:

melting point: 117 to 119 °C
EC50 (TBK1): 166 nM
IC50 (Full length human TBK1): 5.01 nM
Compound: CC(F)(F)CNC(=O)c1cc(-c2ccc3nc(NC(=O)C4CC4)cn3c2)cs1 [Example 3, 4-(2-(cyclopropanecarboxamido)imidazo[1,2-a]pyridin-6-yl)-N-(2,2-difluoropropyl)thiophene-2-carboxamide]

melting point: 279 to 282 °C
EC50 (TBK1): 617 nM
IC50 (Full length human TBK1): 5.01 nM
Compound: O=C(NCC(F)(F)F)c1nc(-c2ccc3nc(NC(=O)C4CC4)cn3c2)cs1 [Example 4, 4-(2-(cyclopropanecarboxamido)imidazo[1,2-a]pyridin-6-yl)-N-(2,2,2-trifluoroethyl)thiazole-2-carboxamide]

melting point: 230 to 232 °C
EC50 (TBK1): 1740 nM
IC50 (Full length human TBK1): 39.8 nM
Compound: COCC(=O)Nc1cn2cc(-c3csc(C(=O)NCC(F)(F)F)c3)ccc2n1 [Example 14, 4-(2-(2-methoxyacetamido)imidazo[1,2-a]pyridin-6-yl)-N-(2,2,2-trifluoroethyl)thiophene-2-carboxamide]

melting point: > 275 °C
EC50 (TBK1): 3310 nM
IC50 (Full length human TBK1): 79.4 nM
Compound: Cc1c(-c2ccc3nc(NC(=O)C4CC4)cn3c2)n[nH]c1C(=O)NCC(F)(F)F [Example 25, 3-(2-(cyclopropanecarboxamido)imidazo[1,2-a]pyridin-6-yl)-4-methyl-N-(2,2,2-trifluoroethyl)-1H-pyrazole-5-carboxamide]

EC50 (TBK1): 55 nM
IC50 (Full length human TBK1): 10 nM
Compound: N[C@H]1CCCC(F)(F)[C@@H]1NC(=O)c1cc(-c2ccc3nc(NC(=O)C4CC4)cn3c2)cs1 [Example 126, N-((1R,6S)-6-amino-2,2-difluorocyclohexyl)-4-(2-(cyclopropanecarboxamido)imidazo[1,2-a]pyridin-6-yl)thiophene-2-carboxamide]
